The values below come from paper PMC9182211, “Structural Investigation of the Interaction Mechanism between Chlorogenic Acid and AMPA Receptor via In Silico Approaches” (Molecules, 2022).

This test has as its target T1, GluA1 (glutamate ionotropic receptor AMPA type subunit 1) (Homo sapiens, UniProt P42261).
T1 construct: gene GRIA1; Recombinant human GluA1 (AMPA subtype) protein (Abcam ab112297)
Description: SPR (Biacore T200, GluA1 immobilized on CM5 chip, steady-state fit). It counts as binding. (Surface plasmon resonance follows binding to a sensor surface in real time, without labels.)

pKd: −log10 of the molar value.

T1 sequence (P42261 19-906): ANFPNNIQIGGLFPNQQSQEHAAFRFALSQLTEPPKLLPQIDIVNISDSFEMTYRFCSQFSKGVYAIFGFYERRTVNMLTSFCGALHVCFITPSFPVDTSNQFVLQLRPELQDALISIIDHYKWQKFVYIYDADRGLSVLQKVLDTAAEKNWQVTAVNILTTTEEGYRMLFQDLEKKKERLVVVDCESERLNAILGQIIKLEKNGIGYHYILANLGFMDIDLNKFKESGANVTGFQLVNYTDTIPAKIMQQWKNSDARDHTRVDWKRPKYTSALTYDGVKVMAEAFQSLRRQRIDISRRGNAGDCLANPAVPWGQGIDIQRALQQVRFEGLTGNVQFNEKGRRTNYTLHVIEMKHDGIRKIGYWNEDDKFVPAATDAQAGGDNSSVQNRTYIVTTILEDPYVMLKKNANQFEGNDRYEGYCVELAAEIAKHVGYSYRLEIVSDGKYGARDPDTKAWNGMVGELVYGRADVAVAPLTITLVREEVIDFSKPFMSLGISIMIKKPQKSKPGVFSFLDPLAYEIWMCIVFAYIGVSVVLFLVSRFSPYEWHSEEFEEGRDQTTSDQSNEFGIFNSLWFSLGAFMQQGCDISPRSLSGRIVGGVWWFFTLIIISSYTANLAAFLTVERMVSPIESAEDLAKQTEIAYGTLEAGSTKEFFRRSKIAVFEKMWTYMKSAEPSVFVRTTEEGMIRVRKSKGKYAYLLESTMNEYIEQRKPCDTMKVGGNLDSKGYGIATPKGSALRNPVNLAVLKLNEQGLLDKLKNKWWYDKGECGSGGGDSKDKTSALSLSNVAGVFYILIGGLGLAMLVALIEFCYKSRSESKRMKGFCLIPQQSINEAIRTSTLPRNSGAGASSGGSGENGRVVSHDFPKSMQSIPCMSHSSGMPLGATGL

In the case of `O=C(/C=C/c1ccc(O)c(O)c1)O[C@@H]1C[C@](O)(C(=O)O)C[C@@H](O)[C@H]1O` [CGA, (1S,3R,4R,5R)-3-[(E)-3-(3,4-dihydroxyphenyl)prop-2-enoyl]oxy-1,4,5-trihydroxycyclohexane-1-carboxylic acid], the negative-log Kd (pKd) (usually −log10 of the Kd, conventionally taken in molar units) was 3.30.
